Source: patent publication US6410054B1, “Immediate release eplerenone compositions” (G. D. Searle & Co., priority 1998, dated 2002)

Experiments:
Assay type in all cases: in vivo, humans
[1] = ADME study of [14C]eplerenone oral solution: excretion in urine, feces, breath; conditions: 100 mg [14C]eplerenone oral solution, mean
Method: An open-label, single dose study was employed to evaluate the absorption, distribution, metabolism and elimination profile of a single 100 mg dose of an oral solution of eplerenone.
The study employed eight healthy male humans. Each subject received a single 100 mg oral dose of a solution of [^14C]eplerenone (specific activity 0.75 μCi/mg). Plasma, saliva, breath, urine and fecal samples were collected at predetermined intervals and analyzed for sample radioactivity and the concentration of eplerenone and its open lactone ring form. Safety was determined on the basis of laboratory tests, vital signs, and the occurrence and types of adverse events.
The subjects, who underwent an overnight food fast prior to administration of the dose, received at 0800 hours a single 100 mg oral dose of an aqueous oral solution of radiolabeled eplerenone reconstituted in 80 mL of an apple juice/hydroxypropyl-β-cyclodextrin mixture. The subjects swallowed about 200 mL of water one, two and three hours post dosing.
Blood samples were collected at −0.5 (predose), 0.5, 1, 1.5, 2, 2.5, 3, 4, 6, 8, 12, 16, 24, 36, 48, 72 and 96 hours post dose. […] Individual fecal samples were collected beginning immediately after dosing and continuing through 0800 hours on day 8. In addition, one predose fecal sample was provided. Saliva samples were taken at 0.5 hour predose and at 0.5, 1, 2, 4, 6, 12, and 24 hours postdose. Breath samples were taken at 0.5 hour predose and at 1, 2, 3, 4, 6, 8, 12, 24, 36, 48 and 72 hours postdose.

[2] = Effect of food study: plasma pharmacokinetics fasted vs high-fat breakfast; conditions: for Plasma Concentration: 100 mg eplerenone capsule
Method: An open-label randomized, cross-over study was employed to evaluate the pharmacokinetic profiles of eplerenone under fasted and fed conditions, and the safety and tolerability of eplerenone. Safety was assessed based on adverse events, vital signs and clinical laboratory tests. Twelve healthy male subjects were randomized to receive a single 100 mg dose of eplerenone on days 1 and 8 under (i) fasted conditions, or (ii) immediately following a high-fat breakfast. The subjects were orally administered (dosed) a single 100 mg dose of eplerenone in the form of the capsule described in Example 7, together with approximately 200 to 240 mL of water at 0800 hours on days 1 and 8. Subjects randomized to receive a high-fat breakfast were to completely ingest the meal within 20 minutes prior to dosing. The high-fat meal contained approximately 33 g protein, 75 g fat, 58 g carbohydrates and 1000 calories. […] All adverse events were mild in severity.

[3] = Multiple dose study: plasma pharmacokinetics and urinary excretion
Method: Multiple oral dose tolerability and the pharmacokinetics of several dosages of eplerenone were evaluated in a double-blind, randomized, placebo-controlled, rising oral dose, sequential panel study of 40 healthy male subjects (five groups of eight subjects). The study medication was administered in […] sequential dose panels, with each panel including eplerenone, spironolactone and placebo. […] The 100 mg and 200 mg dose capsules corresponded to those described in Examples 7 and 8, respectively. Following a 48-hour interval, the study drug was administered once a day for 11 days. Antialdosterone activity was determined following a fludrocortisone challenge on Days 12-13.

dose excreted in feces as the named form [1]: 2.46% | dose excreted in urine as the named form [1]: 4.98% | effect of high-fat meal on AUC0-96 ([2]; 100 mg capsule, fed vs fasted): minimal or no measurable effect | effect of high-fat meal on Cmax ([2]; 100 mg capsule, fed vs fasted): reduction | effect of high-fat meal on Tmax ([2]; 100 mg capsule, fed vs fasted): increase | effect of high-fat meal on T½ ([2]; 100 mg capsule, fed vs fasted): minimal or no measurable effect | Plasma Concentration ([2]; Fasted Conditions, 0.5 hours after dosing): 69.163 ng/mL | Plasma Concentration ([2]; Fasted Conditions, 1.0 hours after dosing): 91.208 ng/mL | Plasma Concentration ([2]; Fasted Conditions, 2.0 hours after dosing): 70.600 ng/mL | Plasma Concentration ([2]; Fasted Conditions, 3.0 hours after dosing): 58.833 ng/mL | Plasma Concentration ([2]; Fasted Conditions, 4.0 hours after dosing): 45.042 ng/mL | Plasma Concentration ([2]; Fasted Conditions, 6.0 hours after dosing): 31.773 ng/mL | Plasma Concentration ([2]; Fasted Conditions, 8.0 hours after dosing): 18.708 ng/mL | Plasma Concentration ([2]; Fasted Conditions, 28.0 hours after dosing): 0 ng/mL | Plasma Concentration ([2]; Fasted Conditions, 48.0 hours after dosing): 0 ng/mL | Plasma Concentration ([2]; Fasted Conditions, 72.0 hours after dosing): 0 ng/mL | Plasma Concentration ([2]; Fasted Conditions, −0.5 hours after dosing): 0 ng/mL | Plasma Concentration ([2]; High Fat Breakfast, 0.5 hours after dosing): 2.300 ng/mL | Plasma Concentration ([2]; High Fat Breakfast, 1.0 hours after dosing): 17.392 ng/mL | Plasma Concentration ([2]; High Fat Breakfast, 2.0 hours after dosing): 36.964 ng/mL | Plasma Concentration ([2]; High Fat Breakfast, 3.0 hours after dosing): 56.742 ng/mL | Plasma Concentration ([2]; High Fat Breakfast, 4.0 hours after dosing): 66.817 ng/mL | Plasma Concentration ([2]; High Fat Breakfast, 6.0 hours after dosing): 51.675 ng/mL | Plasma Concentration ([2]; High Fat Breakfast, 8.0 hours after dosing): 30.950 ng/mL | Plasma Concentration ([2]; High Fat Breakfast, 28.0 hours after dosing): 0 ng/mL | Plasma Concentration ([2]; High Fat Breakfast, 48.0 hours after dosing): 0 ng/mL | Plasma Concentration ([2]; High Fat Breakfast, 72.0 hours after dosing): 0 ng/mL | Plasma Concentration ([2]; High Fat Breakfast, −0.5 hours after dosing): 0 ng/mL | dose proportionality of plasma concentrations and dose-adjusted AUC ([3]; 100 mg to 1000 mg, single or multiple doses): consistent with dose proportionality
Compound: COC(=O)C1CC2=CC(=O)CCC2(C)C23OC2CC2(C)C(CCC2(O)CCC(=O)O)C13 (stereo not drawn) [Open Ring Lactone]
accumulation ([3]; once a day for 11 days): no significant or dose-related accumulation
